Experimental data taken from ChEMBL document CHEMBL3885881, “DrugMatrix”.

Species on record: Rattus norvegicus
Experiment: DrugMatrix - Regimen: Daily Repeat
Format: toxicity, organism-based, Sprague-Dawley
Set-up: regimen Daily Repeat, gender Male, age 6-8 weeks
Settings: in vivo, po, route oral GAVAGE, […]; for ABSOLUTE BASOPHIL / BASOPHIL / ABSOLUTE EOSINOPHIL / ABSOLUTE LYMPHOCYTE / ABSOLUTE MONOCYTE / ABSOLUTE SEGMENTED NEUTROPHIL / EOSINOPHIL / ERYTHROCYTE COUNT / HEMATOCRIT / HEMOGLOBIN / LEUKOCYTE COUNT / LYMPHOCYTE / MEAN CORPUSCULAR HEMOGLOBIN / MEAN CORPUSCULAR HEMOGLOBIN CONCENTRATION / MEAN CORPUSCULAR VOLUME / MONOCYTE / NEUTROPHIL / NUCLEATED RED BLOOD CELLS / PLATELET COUNT: tissue Blood; for ALANINE AMINOTRANSFERASE / ALKALINE PHOSPHATASE / ASPARTATE AMINOTRANSFERASE / BLOOD UREA NITROGEN / CARBON DIOXIDE / CHLORIDE / CHOLESTEROL / CREATINE PHOSPHOKINASE / CREATININE / GLUCOSE / LACTATE DEHYDROGENASE / LIPASE / PHOSPHORUS / POTASSIUM / SODIUM / TOTAL BILIRUBIN: tissue Plasma
[1] = 0 mg/kg, 72 h, dose level Control, time 3 day
[2] = 0 mg/kg, 120 h, dose level Control, time 5 day
[3] = 0.3 mg/kg, 72 h, dose level Low, time 3 day
[4] = 0.3 mg/kg, 120 h, dose level Low, time 5 day
[5] = 27 mg/kg, 72 h, dose level M1, time 3 day
[6] = 54 mg/kg, 72 h, dose level High, time 3 day

## CN(Cc1cnc2nc(N)nc(N)c2n1)c1ccc(C(=O)N[C@@H](CCC(=O)O)C(=O)O)cc1 [METHOTREXATE]
[1]
  ABSOLUTE BASOPHIL: 0 CELLS/uL
  BASOPHIL: 0%
[2]
  ABSOLUTE BASOPHIL: 0 CELLS/uL
  ABSOLUTE EOSINOPHIL: 331.5 CELLS/uL
  BASOPHIL: 0%
[3]
  ABSOLUTE BASOPHIL: 0 CELLS/uL
  ABSOLUTE EOSINOPHIL: 94 CELLS/uL
  ABSOLUTE LYMPHOCYTE: 7221.33 CELLS/uL
  ABSOLUTE MONOCYTE: 172.67 CELLS/uL
  ABSOLUTE SEGMENTED NEUTROPHIL: 2345.33 CELLS/uL
  BASOPHIL: 0%
  EOSINOPHIL: 0.67%
  ERYTHROCYTE COUNT: 5.78 x10E6/uL
  HEMATOCRIT: 37.2%
  HEMOGLOBIN: 14.3 G/DL
  LEUKOCYTE COUNT: 9.83 x10E3/uL
  LYMPHOCYTE: 70%
  MEAN CORPUSCULAR HEMOGLOBIN: 24.77 pg
  MEAN CORPUSCULAR HEMOGLOBIN CONCENTRATION: 38.47 G/DL
  MEAN CORPUSCULAR VOLUME: 64.33 fL
  MONOCYTE: 1.67%
  NEUTROPHIL: 27.67%
  NUCLEATED RED BLOOD CELLS: 0 /100WBC
  PLATELET COUNT: 997.67 x10E3/uL
  ALANINE AMINOTRANSFERASE: 69 u/L
  ALKALINE PHOSPHATASE: 597.33 u/L
  ASPARTATE AMINOTRANSFERASE: 118.33 u/L
  BLOOD UREA NITROGEN: 12.33 mg/dL
  CARBON DIOXIDE: 20 mmol/L
  CHLORIDE: 100.67 MEQ/L
  CHOLESTEROL: 42.33 mg/dL
  CREATINE PHOSPHOKINASE: 1224.33 u/L
  CREATININE: 0.11 mg/dL
  GLUCOSE: 237.67 mg/dL
  LACTATE DEHYDROGENASE: 410.67 u/L
  LIPASE: 11.67 u/L
  PHOSPHORUS: 14.63 mg/dL
  POTASSIUM: 6.55 MEQ/L
  SODIUM: 141.9 MEQ/L
  TOTAL BILIRUBIN: 0.13 mg/dL
[4]
  ABSOLUTE BASOPHIL: 0 CELLS/uL
  ABSOLUTE EOSINOPHIL: 124.67 CELLS/uL
  ABSOLUTE LYMPHOCYTE: 6857.33 CELLS/uL
  ABSOLUTE MONOCYTE: 225.67 CELLS/uL
  ABSOLUTE SEGMENTED NEUTROPHIL: 959 CELLS/uL
  BASOPHIL: 0%
  EOSINOPHIL: 1.33%
  ERYTHROCYTE COUNT: 5.9 x10E6/uL
  HEMATOCRIT: 37.7%
  HEMOGLOBIN: 14.3 G/DL
  LEUKOCYTE COUNT: 8.17 x10E3/uL
  LYMPHOCYTE: 82.33%
  MEAN CORPUSCULAR HEMOGLOBIN: 24.27 pg
  MEAN CORPUSCULAR HEMOGLOBIN CONCENTRATION: 37.93 G/DL
  MEAN CORPUSCULAR VOLUME: 63.93 fL
  MONOCYTE: 2.67%
  NEUTROPHIL: 13.67%
  NUCLEATED RED BLOOD CELLS: 0 /100WBC
  PLATELET COUNT: 1097 x10E3/uL
  ALANINE AMINOTRANSFERASE: 52.33 u/L
  ALKALINE PHOSPHATASE: 510 u/L
  ASPARTATE AMINOTRANSFERASE: 80.33 u/L
  BLOOD UREA NITROGEN: 10 mg/dL
  CARBON DIOXIDE: 24 mmol/L
  CHLORIDE: 102.33 MEQ/L
  CHOLESTEROL: 38 mg/dL
  CREATINE PHOSPHOKINASE: 556.67 u/L
  CREATININE: 0.1 mg/dL
  GLUCOSE: 165.67 mg/dL
  LACTATE DEHYDROGENASE: 131.67 u/L
  LIPASE: 6.67 u/L
  PHOSPHORUS: 12.1 mg/dL
  POTASSIUM: 6.83 MEQ/L
  SODIUM: 142.1 MEQ/L
  TOTAL BILIRUBIN: 0.2 mg/dL
[5]
  ABSOLUTE BASOPHIL: 0 CELLS/uL
  ABSOLUTE EOSINOPHIL: 0 CELLS/uL
  BASOPHIL: 0%
  EOSINOPHIL: 0%
  NUCLEATED RED BLOOD CELLS: 0 /100WBC
  CREATININE: 0.19 mg/dL
  TOTAL BILIRUBIN: 0.13 mg/dL
[6]
  ABSOLUTE BASOPHIL: 0 CELLS/uL
  ABSOLUTE EOSINOPHIL: 68 CELLS/uL
  ABSOLUTE LYMPHOCYTE: 3442 CELLS/uL
  ABSOLUTE MONOCYTE: 42 CELLS/uL
  ABSOLUTE SEGMENTED NEUTROPHIL: 1648 CELLS/uL
  BASOPHIL: 0%
  EOSINOPHIL: 1%
  ERYTHROCYTE COUNT: 7.17 x10E6/uL
  HEMATOCRIT: 43.93%
  HEMOGLOBIN: 17.27 G/DL
  LEUKOCYTE COUNT: 5.2 x10E3/uL
  LYMPHOCYTE: 69%
  MEAN CORPUSCULAR HEMOGLOBIN: 24.07 pg
  MEAN CORPUSCULAR HEMOGLOBIN CONCENTRATION: 39.3 G/DL
  MEAN CORPUSCULAR VOLUME: 61.23 fL
  MONOCYTE: 1%
  NEUTROPHIL: 29%
  NUCLEATED RED BLOOD CELLS: 0 /100WBC
  PLATELET COUNT: 1149 x10E3/uL
  ALANINE AMINOTRANSFERASE: 26.33 u/L
  ALKALINE PHOSPHATASE: 163 u/L
  ASPARTATE AMINOTRANSFERASE: 107 u/L
  BLOOD UREA NITROGEN: 23 mg/dL
  CARBON DIOXIDE: 18.67 mmol/L
  CHLORIDE: 94.5 MEQ/L
  CHOLESTEROL: 36 mg/dL
  CREATINE PHOSPHOKINASE: 1782.67 u/L
  CREATININE: 0.13 mg/dL
  GLUCOSE: 207.67 mg/dL
  LACTATE DEHYDROGENASE: 368.67 u/L
  LIPASE: 37 u/L
  PHOSPHORUS: 11.03 mg/dL
  POTASSIUM: 5.79 MEQ/L
  SODIUM: 137 MEQ/L
  TOTAL BILIRUBIN: 0.2 mg/dL
